Marks after values point to notes of the source that are not given here.
Test system: HepaRG cells
Assay: AMC-BAL bioreactor functionality test of HepaRG cells
Assay type: cell-based, human
Method: One liter of HepaRG medium containing 75 ml of viable HepaRG cells is injected under sterile conditions into an AMC-BAL bioreactor (cf. Flendrig et al.^15) through three loading ports. […] To ensure optimal cell attachment and an even cell distribution, bioreactors are rotated 340° (back and forth) along the longitudinal axis at 1 revolution/min. After this attachment period, dead and unattached cells are removed by flushing 500 mL of fresh culture medium through the bioreactor at 150 mL/min. From then on bioreactors are perfused with 1.5 L recirculating culture medium at 150 mL/min. The medium is refreshed every three days. The bioreactors are cultured in HepaRG medium for 14 days. […] At least one week prior to clinical application, 1 mM CG (Sigma) is added to the media to enhance the urea cycle. The bioreactors are tested every culture week and prior to clinical application for sterility and function. Laboratory model AMC-BAL bioreactors, e.g. of a different scale, are produced in essentially the same way as described above. These laboratory model bioreactors are used e.g. for clinical testing in animal models, such as rats with acute liver failure.
Thirdly, the culture medium is replaced by 1500 ml test medium. […] At first 700 ml test medium is flushed through the bioreactor followed by recirculation of 800 ml test medium during 24 hours. […] From the changes in concentration an activity per hour and per billion cells seeded is calculated.

[1] = Bioreactor −DMSO +CG versus Monolayer + DMSO − CG
[2] = Bioreactor −DMSO +CG versus Monolayer − DMSO − CG
[3] = HepaRG in AMC-BAL bioreactor, 13 days, −DMSO, 1 mM CG

For `NC(=O)N[C@@H](CCC(=O)O)C(=O)O` [CG, carbamoyl glutamate], which “% improvement by bioreactor: 15N urea enrichment” value [1] is on record?
The value was 157* %.

And the “% improvement by bioreactor: Ammonia elimination” value [1]?
Its value is 134%.

What about the “% improvement by bioreactor: ApoA1 synthesis” value [1] of the same compound?
Its value is 113%.

What about the “% improvement by bioreactor: Lactate consumption” value [1] of the same compound?
The value was “conversion*”.

What about the “% improvement by bioreactor: Urea production” value [1] of the same compound?
Its value is 187* %.

And the “% improvement by bioreactor: 15N urea enrichment” value [2]?
The value was 418* %.

And the “% improvement by bioreactor: Ammonia elimination” value [2]?
Its value is 199* %.

What about the “% improvement by bioreactor: ApoA1 synthesis” value [2] of the same compound?
The value was 154%.

What about the “% improvement by bioreactor: Lactate consumption” value [2] of the same compound?
Its value is “conversion*”.

And the “% improvement by bioreactor: Urea production” value [2]?
Its value is 262* %.

And the 15N urea enrichment [3]?
The 15N urea enrichment was 25.1 ± 3.7 % of total urea.

What about the Ammonia elimination [3] of the same compound?
The Ammonia elimination was 143 ± 105 nmol/h/mg protein.

What about the ApoA1 synthesis [3] of the same compound?
Its ApoA1 synthesis is 1.2 ± 0.9 ug/h/mg protein.

And the Lactate consumption [3]?
Its Lactate consumption is 42.1 ± 14.7 nmol/h/mg protein.

And the Urea production [3]?
The Urea production was 13.1 ± 1.2 nmol/h/mg protein.
